Source: patent US12692223B2, “Phenyl-sulfamoyl-benzoic acid derivatives as ERAP1-modulators” (GREY WOLF THERAPEUTICS LIMITED, priority 2021, dated 2026)
pIC50: −log10 of the molar value.

What follows are compounds tested against T1, ERAP1 (Homo sapiens, UniProt Q9NZ08) (assay: ERAP1 mediated hydrolysis of an amide substrate measured in a biochemical system (10-mer inhibition assay)). Settings: purified ERAP1(37-941)-10His; 10-mer substrate; 23° C. for 1 h; excitation 279 nm, emission 355 nm; read-out: IC50 vs Decapeptide WRVYEKC(Dnp)ALK-acid (where Dnp is Dinitrophenyl maleimide) (10-mer).
T1 construct: Purified ERAP1(37-941)-10His (ERAP1)
T1 sequence (Q9NZ08 37-941): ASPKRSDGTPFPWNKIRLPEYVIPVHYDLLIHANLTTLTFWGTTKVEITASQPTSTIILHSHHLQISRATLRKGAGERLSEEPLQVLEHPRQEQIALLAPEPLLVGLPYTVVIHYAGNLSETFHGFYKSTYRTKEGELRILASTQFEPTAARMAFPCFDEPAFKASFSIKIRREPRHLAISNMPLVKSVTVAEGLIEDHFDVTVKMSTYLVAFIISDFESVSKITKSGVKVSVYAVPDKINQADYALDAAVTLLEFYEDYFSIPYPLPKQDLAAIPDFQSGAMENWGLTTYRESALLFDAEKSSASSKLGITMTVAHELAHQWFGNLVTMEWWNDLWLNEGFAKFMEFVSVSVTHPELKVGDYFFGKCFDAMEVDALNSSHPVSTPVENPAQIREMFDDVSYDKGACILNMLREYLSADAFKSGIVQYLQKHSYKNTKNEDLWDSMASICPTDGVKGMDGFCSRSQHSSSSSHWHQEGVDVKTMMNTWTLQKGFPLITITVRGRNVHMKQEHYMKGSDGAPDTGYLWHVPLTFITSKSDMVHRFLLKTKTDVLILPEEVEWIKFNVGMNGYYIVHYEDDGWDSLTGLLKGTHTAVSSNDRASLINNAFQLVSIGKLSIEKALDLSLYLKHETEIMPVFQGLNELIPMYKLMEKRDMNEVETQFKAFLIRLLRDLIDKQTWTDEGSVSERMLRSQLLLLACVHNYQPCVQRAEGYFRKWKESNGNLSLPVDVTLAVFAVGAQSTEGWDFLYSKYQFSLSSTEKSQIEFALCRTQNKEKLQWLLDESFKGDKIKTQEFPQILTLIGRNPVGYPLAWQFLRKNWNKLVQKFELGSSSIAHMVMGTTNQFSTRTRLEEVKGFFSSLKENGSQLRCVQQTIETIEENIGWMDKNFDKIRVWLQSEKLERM
Outline: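 Purified ERAP1(37-941)-10His in 25 mM Bis-tris propane, 0.05% HPMC, pH 7.75, with compound, then 100 μM 10-mer WRVYEKC(Dnp)ALK or 240 μM L-AMC added (stock concentrations before 1:1 mixing), 1 h at 23 °C. Fluorescence read at ex 279/em 355 nm (10-mer) or ex 365/em 442 nm (L-AMC); IC50 from 4-parameter fit.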

pIC50	Compound
> 9.00	CC1(C)CCC[C@H]1Oc1cc(Cl)c(C#N)cc1NS(=O)(=O)c1cc(C(=O)O)ccc1C1CC1 [Example 63, (R)-3-(N-(4-chloro-5-cyano-2-((2,2-dimethylcyclopentyl)oxy)phenyl)sulfamoyl)-4-cyclopropylbenzoic acid]
> 9.00	N#Cc1cc(NS(=O)(=O)c2cc(C(=O)O)ccc2C2CC2)c(OC2CCC3(CC3)C2)cc1Cl (centres unmarked) [Example 64, 3-(N-(4-chloro-5-cyano-2-(spiro[2.4]heptan-5-yloxy)phenyl)sulfamoyl)-4-cyclopropylbenzoic acid]
8.30 to 9.00	N#Cc1cc(NS(=O)(=O)c2cc(C(=O)O)ccc2C2CC2)c(OCC23COC(C2)C3)cc1Cl [Example 65, 3-(N-(2-((2-oxabicyclo[2.1.1]hexan-4-yl)methoxy)-4-chloro-5-cyanophenyl)sulfamoyl)-4-cyclopropylbenzoic acid]
< 8.30	N#Cc1cc(NS(=O)(=O)c2cc(C(=O)O)ccc2C2CC2)c(OC2COC2)cc1Cl [Example 66, 3-(N-(4-chloro-5-cyano-2-(oxetan-3-yloxy)phenyl)sulfamoyl)-4-cyclopropylbenzoic acid]
< 8.30	N#Cc1cc(NS(=O)(=O)c2c(C3CC3)ccc(C(=O)O)c2F)c(OC2CCCC2)cc1Cl [Example 67, 3-(N-(4-chloro-5-cyano-2-(cyclopentyloxy)phenyl)sulfamoyl)-4-cyclopropyl-2-fluorobenzoic acid]
> 9.00	N#Cc1cc(NS(=O)(=O)c2cc(C(=O)O)ccc2C2CC2)c(OC2CCCC23CC3)cc1Cl (centres unmarked) [Example 69, 3-(N-(4-chloro-5-cyano-2-(spiro[2.4]heptan-4-yloxy)phenyl)sulfamoyl)-4-cyclopropylbenzoic acid]
> 9.00	C[C@H](Oc1cc(Cl)c(C#N)cc1NS(=O)(=O)c1cc(C(=O)O)ccc1C1CC1)C1CCC1 [Example 70, (S)-3-(N-(4-chloro-5-cyano-2-(1-cyclobutylethoxy)phenyl)sulfamoyl)-4-cyclopropylbenzoic acid]
> 9.00	N#Cc1cc(NS(=O)(=O)c2cc(C(=O)O)ccc2C2CC2)c(O[C@@H]2CCC[C@@H]2F)cc1Cl [Example 73, 3-(N-(4-chloro-5-cyano-2-(((1R,2S)-2-fluorocyclopentyl)oxy)phenyl)sulfamoyl)-4-cyclopropylbenzoic acid]
8.30 to 9.00	CC1(C)CC(COc2cc(Cl)c(C#N)cc2NS(=O)(=O)c2cc(C(=O)O)ccc2C2CC2)C1 [Example 75, 3-(N-(4-chloro-5-cyano-2-((3,3-dimethylcyclobutyl)methoxy)phenyl)sulfamoyl)-4-cyclopropylbenzoic acid]

Compound	pIC50
Cc1oncc1-c1cc(NS(=O)(=O)c2cc(C(=O)O)ccc2C2CC2)c(OC2CCC2)cc1Cl [Example 60, 3-(N-(4-chloro-2-cyclobutoxy-5-(5-methylisoxazol-4-yl)phenyl)sulfamoyl)-4-cyclopropylbenzoic acid]	> 9.00
Cc1oncc1-c1cc(NS(=O)(=O)c2cc(C(=O)O)ccc2C2CC2)c(OC2CC(F)(F)C2)cc1Cl [Example 61, 3-(N-(4-chloro-2-(3,3-difluorocyclobutoxy)-5-(5-methylisoxazol-4-yl)phenyl)sulfamoyl)-4-cyclopropylbenzoic acid]	> 9.00
CC1(Oc2cc(Cl)c(C#N)cc2NS(=O)(=O)c2cc(C(=O)O)ccc2C2CC2)CCC1 [Example 62, 3-(N-(4-chloro-5-cyano-2-(1-methylcyclobutoxy)phenyl)sulfamoyl)-4-cyclopropylbenzoic acid]	> 9.00
CO[C@H]1C[C@@H](Oc2cc(Cl)c(C#N)cc2NS(=O)(=O)c2cc(C(=O)O)ccc2C2CC2)C1 [Example 68, 3-(N-(4-chloro-5-cyano-2-(cis-3-methoxycyclobutoxy)phenyl)sulfamoyl)-4-cyclopropylbenzoic acid]	8.30 to 9.00
N#Cc1cc(NS(=O)(=O)c2cc(C(=O)O)ccc2C2CC2)c(O[C@H]2C[C@@H](F)C2)cc1Cl [Example 71, 3-(N-(4-chloro-5-cyano-2-(cis-3-fluorocyclobutoxy)phenyl)sulfamoyl)-4-cyclopropylbenzoic acid]	> 9.00
